# Literature values in US20240358662A1, “COMPOSITIONS, METHODS AND SYSTEMS FOR AEROSOL DRUG DELIVERY” (ASTRAZENECA PHARMACEUTICALS LP, priority 2021, published 2024).
# Settings: for Latent Heat @ Boiling Point: at boiling point
Liquid Density @ 20° C.,Liquid Viscosity @ 20° C. (mPa · S),Surface Tension @ 20° C. (mN/m),Vapor Pressure @ 20° C. (kPa),Latent Heat @ 25° C.,Latent Heat @ Boiling Point,SMILES
1.23 g/mL,0.211 mPa · S,8.09 mN/m,570 kPa,177.7 kJ/kg,216.7 kJ/kg,"FCC(F)(F)F [HFA-134a, 1,1,1,2-tetrafluoroethane]"
0.91 g/mL,0.171 mPa · S,10.4 mN/m,510 kPa,279.1 kJ/kg,318.4 kJ/kg,"CC(F)F [HFC-152a, 1,1-Difluoroethane]"
1.41 g/mL,0.267 mPa · S,7.50 mN/m,390 kPa,110.97 kJ/kg,131.4 kJ/kg,"FC(C(F)(F)F)C(F)(F)F [HFA-227ea, 1,1,1,2,3,3,3-Heptafluoropropane]"

SMILES,Liquid Density @ 20° C.,Liquid Viscosity @ 20° C. (mPa · S),Surface Tension @ 20° C. (mN/m),Vapor Pressure @ 20° C. (kPa),Latent Heat @ 25° C.,Latent Heat @ Boiling Point
"FC=CC(F)(F)F [HFO-1234ze, 1,3,3,3-tetrafluoropropene]",1.18 g/mL,0.206^3 mPa · S,8.9 mN/m,427 kPa,166.8 kJ/kg,195.43 kJ/kg
"C=C(F)C(F)(F)F [HFO-1234yf, 2,3,3,3-Tetrafluoropropene]",1.11 g/mL,0.164 mPa · S,6.8 mN/m,592 kPa,145.4 kJ/kg,180.5 kJ/kg
